Measurements reported in patent EP4000617A1, “COMPOSITIONS FOR USE IN THE TREATMENT OF LEUKAEMIA” (Fundació Institut de Recerca Contra la Leucèmia Josep …, priority 2020, dated 2022).

Tested on: Luc-positive MonoMac-1 AML cells
Assay: Luc-positive MonoMac-1 AML xenograft in NSG mice, bioluminescence imaging
Format: in vivo, NOD-scid IL2Rgamma null (NSG) mice
Conditions: 10 mg/kg intraperitoneally on days 3, 4, 5, 6, 7, 10 and 11, at day 12, in comparison to the control

Q: “N,N-dimethyl 3-(10H-benz[b]indeno[2,1-d]thien-10-ylidene) -1-Propanamine [compound 87]” was tested. Which “amount of AML cells” value did it give?
A: remarkable reduction
